# Source: patent US20260000496A1, “MATERIALS AND METHODS FOR DRUG-INDUCED GINGIVAL OVERGROWTH” (Optimed Technology, Inc., priority 2019, published 2026)
# Key:
# [1] = system: LITAF; assay: Mice study #2: LITAF immunostaining of gingival tissue; assay type: in vivo, C57BL/6 mice
# Description: Mice study #2: Validation study for preventive and active treatment for DIGO. […] One set of these mice were used as a control disease group (FIG. 23A) while the other group was treated with folic acid (gel and in drinking water) (FIG. 23B). In the prevention and treatment group, folic acid (10 μg/ml) (Sigma-Aldrich, St. Louis MO) was included in the drinking water from the time of suture placement until end of the study (14 days). Additionally, gel applications were repeated daily until the end of the study (14 days). The four groups in this study were: • 1. Control group (n=2): no interventions were performed • 2.
# Histopathology and Immunohistochemistry. Mice mandibles were fixed in 10% formaldehyde for overnight at 4° C. on the shaker with 45 rpm and then the solutions were replaced with 70% ethanol. The tissues were decalcified with 10% ethylenediaminetetraacetic acid (EDTA) for 1 week and were dehydrated through graded ethanol, cleared with xylene, and embedded in paraffin. 4 μm serial sections were cut in a buccal-lingual direction and stained with Hematoxylin and Eosin (HE) and observed under light microscopy for histomorphological evaluations.
# For immunohistochemistry, unstained sections were deparaffinized in xylene for 10 minutes and then transferred to ethanol for 20 minutes. […]
# [2] = system: TGF-β secreted by HOF cells; assay: TGF-β ELISA in Human Oral Fibroblast cells; assay type: cell-based; conditions: HOF treated with conditioned media from Oral Keratinocytes
# Description: Cell Culture. Normal human oral keratinocytes (NOKSI) and fibroblast (HOF) cells were maintained in Dulbecco […] Eagle's medium (Sigma-Aldrich, St. Louis, MO, USA) supplemented with 10% fetal bovine serum (Atlas Bio-logicals, Fort Collins, CO, USA) and 100 units/mL penicillin and 100 μg/mL streptomycin (LifeTechnologies, Carlsbad, CA, USA). Cells were grown in incubator at 37° C. in a humidified chamber with 5% CO2.
# Enzyme linked immunosorbent assay (ELISA). ELISA was conducted with a mouse TNF-α ELISA Kit (PeproTech, USA) and TGF-β Emax ImmunoAssay System (Promega USA) to detect the TNF-α and TGF-β respectively. After normalization of the total cells or tissue protein lysates, 20 μg protein of each sample was used for the detection of TNF-α or TGF-β. ELISA was performed according to the manufacturers' instructions. For TNF-α, 100 ng/100 μl of capture antibody was added to each well of 96 well assay plate and incubated for overnight at room temperature. Blocking buffer of 200 μl per well were added to each well and incubated for 1 hour at room temperature. […] Optical absorbing values were read at 405 and 450 nm and corrected by 650 nm. […] TMB One Solution was added for 15 minutes and the reaction were stopped using 100 μl of 1N hydrochloric acid and the absorbance at 450 nm were recorded on a plate reader. Data were analyzed using excel software. […]
structure (smiles),measurement,setting,value
Nc1nc2ncc(CNc3ccc(C(=O)N[C@@H](CCC(=O)O)C(=O)O)cc3)nc2c(=O)[nH]1 [folic acid],"epithelial LITAF expression, disease group relative to folic acid-treated group",[1],higher in the disease group and uniformly distributed compared to the control and treated groups
same,amount of TGF-β secreted by HOF cells,[2],reduce TGF-β expression
